The text below walks through data of US8785423B2, “Compositions and methods of inducing endoplasmic reticulum stress response for the treatment of cell proliferative diseases” (University of Maryland, Baltimore, priority 2008, dated 2014).

Holding throughout (assay type): cell-based
One assay relates to LNCaP cells. Nature of the assay: MTT cell viability assay, 96 hr exposure. As to conditions: for GI50: Homo sapiens. As for the experimental part:
(§1) All cell lines were obtained from American. Type Culture Collection (Rockville, Md.) and maintained in RPM 1640 media supplemented with 10% fetal bovine serum and 5% penicillin streptomycin solution. Cells were grown as a monolayer in a humidified incubator (5% CO2) at 37° C. To determine the effect of the various compounds on cell proliferation, cells were plated (2500 cells/well) in 96-well cell culture dishes (Corning, Inc. Corning, N.Y.). After a 24 hr attachment period, media was replaced with fresh media containing compounds (0.01 μM-100 μM) or vehicle (95% ethanol). The cells were then allowed to grow in the presence of the drugs for 96 hrs. After 96 hrs, relative cell viability was assessed using the MIT reagent (3-(4,5-dimethylthiazol-2-yl)-2,5-diphenyltetrazolium bromide) as is well-known in the art. […] Results were plotted using the average of each dose over all three experiments and fitted with a best-fit sigmoidal dose response variable slope curve using GraphPad Prism 4.01 (GraphPad Software, Inc.). For combination of VN/124-1 and Thapsigargin, cells were treated for 72 hrs and viability was assessed as described for single agents. Combination index (CI) was calculated as is well known in the art, and CI values less than 1 are considered synergistic.
Background: Formazan colour is commonly taken as a measure of viable cells.

Another assay relates to DU-145 cells. As to the kind of experiment: MTT cell viability assay, 96 hr exposure. As to conditions: DU-145, 96 hrs; for GI50: Homo sapiens. As for the experimental part:
as §1

Assay [1] relates to PC-3 cells. As to the kind of experiment: MTT cell viability assay, 96 hr exposure. The following applies: PC-3, 96 hrs; for GI50: Homo sapiens. The protocol:
as §1

Assay [2] relates to eIF2α, p-eIF2α, cyclin D1, gp78/BiP, CHOP. As to the kind of experiment: Western blot of ERSR related proteins. The following applies: 20 μM. As for the experimental part: Cells were treated with VN/124-1, thapsigargin or vehicle for 6 and 24 hrs. Protein was isolated, subjected to SDS-PAGE, transferred and imaged as is known in the art. Primary antibodies against eIF2α, p-eIF2α, cyclin D1, gp78/BiP, and β-actin were purchased from Cell Signaling (Danvers, Mass.), Anti-CHOP antibody was purchased from Sigma Aldrich (St Louis, Mo.). Quantitation of relative protein expression was determined via densitometry using the software ImageQuant 5.0 (Molecular Dynamics) with each protein normalized to its respective loading control. Results represent the average of at least 3 independent experiments, with representative blots shown.
Background: In western blotting, separated proteins are transferred to a membrane and probed.

In assay [3] the test system is PC-3 cells. As to the kind of experiment: Real-time PCR (qRT-PCR) of stress response and cell cycle related genes. The following applies: 20 μM, 24 hr. As for the experimental part:
Cells were treated, lysed and RNA collected and quantified using the same method outlined above. Cells were dosed independently on 3 separate days (n=3). 1 μg of total RNA was converted to cDNA using ReactionReady™ First Strand cDNA Synthesis kit (SuperArray Bioscience Corp.; Frederick, Md.) following manufacturer's protocol. 50 ng of template cDNA was then used in subsequent real-time PCR (qRT-PCR) reactions. Template was combined with target gene specific or β-actin control RT^2 PCR Primer Sets, RT^2 Real-Time™ SYBR Green/Rox Master Mix (SuperArray Bioscience Corp.), and ddH2O for a final reaction volume of 25 μL and run on a 7900HT Fast Real-Time PCR system (Applied Biosystems; Foster City, Calif.) following manufacturer's protocol. Fold changes were calculated using the ΔΔCt method as recommended by the manufacture's protocol.
Background: In qPCR the cycle at which signal appears reflects the starting amount.

Assay [4] deals with PC-3 cells. Nature of the assay: Microarray global gene expression (GeneChip Human Genome Focus Array, DAVID ontologies). As to conditions: 20 μM, 24 hrs. The protocol:
To perform the microarray experiments, PC-3 cells were treated with (95% ethanol) or 20 μM of VN/124-1. After 24 hr exposure to the agent, cells were pelleted and lysed using Qiagen RLT (Qiagen Inc.; Valencia, Calif.) buffer containing 1% β-mercaptoethanol. Total RNA was isolated using the Qiagen RNeasy-Mini Kit following manufacturer's protocol. Quantity and purity were assessed by absorption at 260 nm and 280 nm. RNA integrity was assessed using an Agilent Bioanalyzer (Agilent Technologies; Santa Clara, Calif.). Experiments were carried out in duplicate, with triplicate samples (dosed independently on 3 different days) from each experiment pooled for analysis on a single chip.
Samples were hybridized to a GeneChip® Human Genome Focus Array (Affymetrix Inc., U.S.A.) and analyzed using an Affymetrix Genechip Scanner 3000 according to manufacturer's protocol. Gene ontologies were identified using the online Database for Annotation, Visualization, and integrated Discovery (DAVID) provided by the National Institute of Allergy and Infectious Diseases and the National Institute of Health. […] Stringent criteria of a minimum EASE/P-Value threshold of 0.001 and a gene count threshold of 5 were used to identify altered gene ontologies.

Assay [5] relates to PC-3 cells. As to the kind of experiment: Absolute [Ca2+]i in individual cells, Fura-2AM. The following applies: 20 μM, 24 hrs, control cells about 42.05 nM. The protocol:
(§2) PC-3 Cells were loaded with either fura-2 or fluo-3 indicator by incubation with 2 μM fura-2/AM or 2 μM fluo-3/AM in RPMI 1640 medium containing 10% fetal bovine serum for >60 min at room temperature. During experiments, the coverslips were mounted in a flow chamber and superfused with oxygenated Locke solution containing (in mM): 10 glucose, 136 NaCl, 5.6 KCl, 1.2 NaH2PO4 14.3 NaHCO3, 1.2 MgCl2, and 2.2 CaCl2, pH 7.4, at room temperature (22-24° C.).
For measurement of [Ca^2+]i in individual cells, PC-3 cells were incubated on coverslips with 20 μM VN/124-1 or vehicle for 24 hrs. Cells loaded with fura-2 were placed in a perfusion chamber mounted on an inverted microscope (TE200; Nikon, Tokyo, Japan) equipped with a UV-transmitting objective (SuperFluor, 40×, N.A. 1.4, Nikon). […] Fluorescence emission was passed through a 515 nm longpass filter before capture by a cooled CCD camera (Retiga 2000R, Q-Imaging). […]
(§3) Fluo-3 Ca^2+ indicator measurements are reported as the fractional change in fluorescence intensity relative to baseline (ΔF/F0), which was determined as follows. Within a temporal sequence of fluorescence images, a region of interest (ROI) was drawn around each cell to be analyzed. The fluorescence signal from each cell was calculated as the pixel-averaged intensity within each ROI. […]

For assay [6], the system named is PC-3 cells. As to the kind of experiment: Cell cycle analysis by flow cytometry in synchronized cells. As to conditions: 20 μM. As for the experimental part: Cells were synchronized in the G1/G0 phase by maintaining them in 0.2% FBS-containing media for 96 hrs. After starvation, media was replaced with normal growth media (10% FBS) containing vehicle (95% ethanol) or 20 μM VN/124-1 for 12, 18, and 24 hrs. At each timepoint, cells were pelleted and fixed in 70% ethanol at −20° C. for at least 24 hrs. Fixed cells were then incubated with 1 mL propidium iodide (PI) staining buffer (1 mg/ml PI, 0.1% Triton-X, and 10 μg/ml RNase A dissolved in PBS) for 1 hr at room temperature and DNA content was measured by flow cytometry analysis using a FACSort flow cytometer (Becton Dickinson, San Jose, Calif.). 15,000 events were analyzed for each sample and ModFit LT version 3.1 (Verity Software House Ind., ME) was used to analyze cell cycle distribution.

In assay [7] the test system is PC-3 cells. Nature of the assay: Co-administration of VN/124-1 and thapsigargin, MTT cell viability, combination index. As to conditions: 96 hrs, CI less than 1 synergistic. The protocol:
All cell lines were obtained from American. Type Culture Collection (Rockville, Md.) and maintained in RPM 1640 media supplemented with 10% fetal bovine serum and 5% penicillin streptomycin solution. Cells were grown as a monolayer in a humidified incubator (5% CO2) at 37° C. To determine the effect of the various compounds on cell proliferation, cells were plated (2500 cells/well) in 96-well cell culture dishes (Corning, Inc. Corning, N.Y.). After a 24 hr attachment period, media was replaced with fresh media containing compounds (0.01 μM-100 μM) or vehicle (95% ethanol). The cells were then allowed to grow in the presence of the drugs for 96 hrs. After 96 hrs, relative cell viability was assessed using the MIT reagent (3-(4,5-dimethylthiazol-2-yl)-2,5-diphenyltetrazolium bromide) as is well-known in the art. Experiments were carried out 3 times with 6 replicates per dose per experiment (n=18). Results were plotted using the average of each dose over all three experiments and fitted with a best-fit sigmoidal dose response variable slope curve using GraphPad Prism 4.01 (GraphPad Software, Inc.). […] Combination index (CI) was calculated as is well known in the art, and CI values less than 1 are considered synergistic.

For assay [8], the system named is PC-3 cells. Nature of the assay: Ca2+ transients in individual cells, Fluo-3AM. As to conditions: 20 μM; for transient rise in [Ca2+]i, mean peak ΔF/F0: Fluo-3AM. As for the experimental part: as §2
For measurement of [Ca^2+]i in individual cells, PC-3 cells were incubated on coverslips with 20 μM VN/124-1 or vehicle for 24 hrs. Cells loaded with fura-2 were placed in a perfusion chamber mounted on an inverted microscope (TE200; Nikon, Tokyo, Japan) equipped with a UV-transmitting objective (SuperFluor, 40×, N.A. 1.4, Nikon). Pura-2 was alternately excited by 340 nm and 380 nm light from monochrometers (Deltascan Illumination System, Photonic Technology International (PTI), South Brunswick, N.J.) and fura-2 emission was passed through a 515 nm longpass tiller before detection by a cooled CCD camera (Retiga 2000R, Q-Imaging, Burnaby, Canada). For measurement of Cat^2+ transients in individual cells, coverslips with fluo-3 loaded cells were excited by the output of a 100 W mercury are lamp that passed through a 480 nm bandpass filter (30 nm bandwidth). Fluorescence emission was passed through a 515 nm longpass filter before capture by a cooled CCD camera (Retiga 2000R, Q-Imaging). Image acquisition was performed with QCapture Pro (Q-Imaging) and analysis was performed with ImageJ (U.S. National Institutes of Health Bethesda, Md. USA).
as §3

The term GI50 denotes the concentration at which growth is held to half of that of the control.

With `C[C@]12CC[C@H](O)CC1=CC[C@@H]1[C@@H]2CC[C@]2(C)C(c3cccnc3)=CC[C@@H]12` [Abiraterone, 17-(3-pyridyl)androsta-5,16-dien-3β-ol, reference compound], the GI50 in the assay with LNCaP cells was found to be 1.41 µM; with DU-145 cells, 14.7 µM; in the assay on PC-3 cells [1], 9.32 µM.

Take `C[C@]12CC[C@H](O)CC1=CCC1C2CC[C@]2(C)C(n3cncn3)=CCC12` (stereo partly shown) [VN/63-1]: the GI90 in the assay on LNCaP cells, with DU-145 cells and with PC-3 cells [1] was >100 µM throughout. Further, the GI50 amounted to 1.05 µM in the assay with LNCaP cells, 11 µM with DU-145 cells and 2.91 µM in the assay with PC-3 cells [1].

On to `C[C@]12CC[C@H](O)CC1=CCC1C2CC[C@]2(C)C(n3ccnc3)=CCC12` (stereo partly shown) [VN/85-1], for which the GI90 with LNCaP cells came to 36.49 µM; in the assay on DU-145 cells, 31.62 µM; with PC-3 cells [1] it was 30.41 µM. Further, the GI50 with LNCaP cells turned out to be 2.47 µM; in the assay with DU-145 cells, 5.31 µM; with PC-3 cells [1] it was 1.86 µM.

Regarding `C[C@]12CC[C@H](O)CC1=CC[C@@H]1[C@@H]2CC[C@]2(C)C(n3cnc4ccccc43)=CC[C@@H]12` [VN/124-1], in assay [2], the CHOP protein level result is listed as “up-regulation” and the “expression of gp78/BiP protein” value was “significantly induced”. The “phosphorylation of eIF2α” value in [2] (6 and 24 hrs) was “induced the phosphorylation”. The “cyclin D1 protein” value in [2] (24 hrs) is “down-regulation”. For the same compound, in the assay on PC-3 cells [3] (microarray verified by qRT-PCR), the “activating transcription factor 4 (ATF4) gene expression” value was “up-regulated” and the “asparagines synthetase (ASKS) gene expression” value was “up-regulated”. Also, in the assay with PC-3 cells [3] (qRT-PCR), the CHOP gene expression entry is “strongly up-regulated”, the “cyclin D1 mRNA levels” value was “not affected” and the “cyclin E2 mRNA levels” value was “significantly reduced”. Besides, the “S100P calcium binding protein gene expression” value in the assay with PC-3 cells [4] is recorded as “most highly up-regulated”. Besides, the “absolute [Ca2+]i, mean” value in the assay with PC-3 cells [5] is given as “about 66.21 nM”. Also, in the assay with PC-3 cells [6] (18 and 24 hrs, synchronized cells), the “amount of cells in G1/G0” value is recorded as “significant increase”. The “exit from G1 phase of the cell cycle” value with PC-3 cells [6] (cells synchronized by serum starvation) was “prevented the exit from G1 phase”. Also, in the assay on LNCaP cells, the GI90 was 31.99 µM and the GI50 came out at 3.15 µM. Besides, in the assay with DU-145 cells, the GI90 is 15.95 µM and the GI50 was 7.55 µM. For the same compound, in the assay on PC-3 cells [1], the GI50 worked out at 7.82 µM and the GI90 is 18.62 µM. Further, in the assay on PC-3 cells [7] (5 μM VN/124-1 plus 10 nM thapsigargin), the “Combination index (CI)” value was 0.40. Moreover, the “Combination index (CI)” value with PC-3 cells [7] (10 μM VN/124-1 plus 10 nM thapsigargin) worked out at 0.58. The “Combination index (CI)” value with PC-3 cells [7] (20 μM VN/124-1 plus 10 nM thapsigargin) is 0.77. Further, in the assay on PC-3 cells [8] (extracellular calcium removed), the “transient rise in [Ca2+]i, mean peak ΔF/F0” value was 0.967. For the same compound, the “transient rise in [Ca2+]i, mean peak ΔF/F0” value with PC-3 cells [8] (presence of extracellular calcium) is on record as 0.613. In the assay on PC-3 cells [8] (pretreatment with SERCA inhibitor cyclopiazonic acid (CPA)), the “transient rise in [Ca2+]i after depletion of ER calcium stores” value was “completely abolished”.

With `C[C@]12CCC(=O)C=C1CCC1C2CC[C@]2(C)C(n3cnc4ccccc43)=CCC12` (stereo partly shown) [VN/125-1], the GI90 in the assay on LNCaP cells came out at 13.46 µM; in the assay with DU-145 cells it was 15.53 µM; in the assay with PC-3 cells [1], 8.07 µM.
